Here are results for six compounds from US20260028354A1, “TETRAHYDRONAPHTHALENE DERIVATIVES AS ESTROGEN RECEPTOR DEGRADERS” (REGENT OF THE UNIVERSITY OF MICHIGAN, priority 2022, published 2026).

The test addresses ER in MCF-7 cells (Homo sapiens (Human), UniProt P03372). The experiment in a line: In-cell Western (ICW) ER degradation assay in MCF-7 cells. The test is classed as cell-based. To be noted: for DC50: MCF-7, ER degradation, read-out: MCF7 DC50. From the text:
In-cell Western (ICW) assays in MCF-7 and T47D cell lines.
Day 3: After 16 hrs of compounds treatment, cells were fixed by 4% PFA and permeabilized with elution buffer (0.1% Triton X-100 in 1% PBS Solution). Subsequently, cells were blocked with Intercept (PBS) Blocking Buffer (Li-COR, Odyssey Blocking Buffer), and were stained with ER (1:500, Cell signaling) primary antibody for overnight at cold room.
Day 4: Remove the buffer, add IRDye 800CW Goat anti-Rabbit IgG Secondary Antibody (1:2000) and CellTag 700 Stain (1:500) in Intercept (PBS) Blocking Buffer. Finally, cell plate is placed in incubator to dry. Image and signal were captured on Odyssey® DLx Imaging System.

Setting [1] is: MCF7, read-out: MCF7 Dmax, MCF-7, maximal ER degradation, 16 hrs treatment.

Read-outs that look alike come from different tables or passages of the source.

Sequence of ER in MCF-7 cells (P03372 whole entry): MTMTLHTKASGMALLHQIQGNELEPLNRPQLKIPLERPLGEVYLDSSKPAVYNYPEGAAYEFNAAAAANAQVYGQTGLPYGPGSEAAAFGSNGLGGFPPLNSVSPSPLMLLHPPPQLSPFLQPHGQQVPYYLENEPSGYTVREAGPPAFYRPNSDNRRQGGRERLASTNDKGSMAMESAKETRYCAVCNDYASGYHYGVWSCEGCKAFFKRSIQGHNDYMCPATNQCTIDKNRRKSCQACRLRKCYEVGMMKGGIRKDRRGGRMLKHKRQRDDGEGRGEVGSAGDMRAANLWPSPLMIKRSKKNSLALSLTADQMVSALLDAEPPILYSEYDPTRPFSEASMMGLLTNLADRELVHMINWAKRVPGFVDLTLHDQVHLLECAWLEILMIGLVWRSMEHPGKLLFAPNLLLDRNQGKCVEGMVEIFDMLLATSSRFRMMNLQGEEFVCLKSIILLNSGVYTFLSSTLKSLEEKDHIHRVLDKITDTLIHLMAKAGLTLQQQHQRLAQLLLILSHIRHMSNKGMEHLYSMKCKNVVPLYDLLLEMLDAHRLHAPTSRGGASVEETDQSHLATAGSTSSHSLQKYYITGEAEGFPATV

Usually Dmax stands for the greatest extent of degradation seen. Usually DC50 stands for the concentration giving 50% degradation. With `COc1cc(N2CC3(CCC(CN4CCN5c6cc7c(cc6OC[C@@H]5C4)C(=O)N([C@H]4CCC(=O)NC4=O)C7)CC3)C2)c(F)cc1[C@H]1c2ccc(O)cc2CC[C@H]1c1ccccc1` [Compound A169, (S)-3-((S)-3-((2-(2-fluoro-4-((1R,2R)-6-hydroxy-2-phenyl-1,2,3,4-tetrahydronaphthalen-1-yl)-5-methoxyphenyl)-2-azaspiro[3.5]nonan-7-yl)methyl)-8-oxo-1,2,3,4,4a,5,8,10-octahydro-9H-pyrazino[1′,2′: 4,5][1,4]oxazino[2,3-f]isoindol-9-yl)piperidine-2,6-dione], the Dmax (MCF7, MCF-7, maximal ER degradation, 16 hrs treatment, read-out: MCF7 Dmax) is 25 to 50%. The DC50 (16 hrs treatment) was 10 to 100 nM.

For the compound `COc1cc(N2CC3(CCC(CN4CCC5(CC4)COc4cc6c(cc45)CN([C@H]4CCC(=O)NC4=O)C6=O)CC3)C2)c(F)cc1[C@H]1c2ccc(O)cc2CC[C@H]1c1ccccc1` [Compound A172, (S)-3-(1′-((2-(2-fluoro-4-((1R,2R)-6-hydroxy-2-phenyl-1,2,3,4-tetrahydronaphthalen-1-yl)-5-methoxyphenyl)-2-azaspiro[3.5]nonan-7-yl)methyl)-7-oxo-5,7-dihydro-2H,6H-spiro[furo[2,3-f]isoindole-3,4′-piperidin]-6-yl)piperidine-2,6-dione], the Dmax under setting [1] lay in the range of 25 to 50%. In addition, the DC50 (16 hrs treatment) fell in the range of 10 to 100 nM. The corresponding values for `O=C1CC[C@H](N2Cc3cc4c(cc3C2=O)OCC42CCN(CC3CC4(CCN(c5ccc([C@@H]6c7ccc(O)cc7CC[C@@H]6c6ccccc6)cc5)CC4)C3)CC2)C(=O)N1` [Compound A182, (S)-3-(1′-((7-(4-((1R,2S)-6-hydroxy-2-phenyl-1,2,3,4-tetra-hydronaphthalen-1-yl)phenyl)-7-azaspiro[3.5]nonan-2-yl)-methyl)-7-oxo-5,7-dihydro-2H, 6H-spiro[furo[2,3-f]isoindole-3,4′-piperidin]-6-yl)piperidine-2,6-dione] are 50 to 75% and less than 1 nM. The corresponding values for `O=C1CC[C@H](N2Cc3c(ccc4c3OCC43CCN(CCCOC4CN(c5ccc([C@@H]6c7ccc(O)cc7CC[C@@H]6c6ccccc6)cc5)C4)CC3)C2=O)C(=O)N1` [Compound A183, (S)-3-(1′-(3-((1-(4-((1R,2S)-6-hydroxy-2-phenyl-1,2,3,4-tetra-hydronaphthalen-1-yl)phenyl)-azetidin-3-yl)oxy)propyl)-6-oxo-6,8-dihydro-2H,7H-spiro [furo[2,3-e]isoindole-3,4′-piperidin]-7-yl)piperidine-2,6-dione] are 50 to 75% and less than 1 nM. With `COc1cc(N2CC3(CC(CN4CCC5(CC4)COc4c5ccc5c4CN(C4CCC(=O)NC4=O)C5=O)C3)C2)c(F)cc1[C@@H]1c2ccc(O)cc2CC[C@@H]1c1ccccc1` (stereo partly drawn) [Compound A184, (S)-3-(1′-((2-(2-fluoro-4-((1S, 2S)-6-hydroxy-2-phenyl-1,2,3,4-tetrahydronaphthalen-1-yl)-5-methoxyphenyl)-2-aza-spiro[3.3]heptan-6-yl)methyl)-6-oxo-6,8-dihydro-2H,7H-spiro[furo[2,3-e]isoindole-3,4′-piperidin]-7-yl)piperidine-2,6-dione], the DC50 (16 hrs treatment) is less than 1 nM. For the compound `O=C1CC[C@H](N2Cc3cc4c(cc3C2=O)OCC42CCN(CC3CCN(c4ccc([C@@H]5c6ccc(O)cc6CC[C@@H]5c5ccccc5)cc4)CC3)CC2)C(=O)N1` [Compound A186, (S)-3-(1′-((1-(4-((1R,2S)-6-hydroxy-2-phenyl-1,2,3,4-tetra-hydronaphthalen-1-yl)phenyl)-piperidin-4-yl)methyl)-7-oxo-5,7-dihydro-2H,6H-spiro[furo [2,3-f]isoindole-3,4′-piperidin]-6-yl)piperidine-2,6-dione], the Dmax under setting [1] was in the range of 50 to 75%. In addition, the DC50 (16 hrs treatment) is less than 1 nM.
